In patent US20230037538A1, “ANTI-ALS COMPOUNDS” (Takeda Pharmaceutical Company Limited, priority 2021, published 2023):

How the values were obtained:
Format in all cases: cell-based, human
[1] = system: FTD affected fibroblasts; test: Stress granule assay in FTD affected fibroblasts (TDP-43 / HuR immunostaining after arsenite stress); details: vehicle (DMSO) alone set at 100, lower = fewer TDP-43 aggregates; for activity at 1 µM: Homo sapiens, Fibroblast, 1 μM compound, read-out: Normalized average number of TDP-43 positive HuR aggregates per cell at 1 μM; for Normalized average number of TDP-43 positive HuR aggregates per cell at 1.5 μM: 1.5 μM compound
Description: In this assay, TDP-43 aggregates in stress granules were quantified after 24 hrs of drug treatment followed by 90 minutes of 100 μM arsenite stress.
On day 1 20,000 patient derived fibroblasts per well were seeded in a 24 well glass bottom plate or 6000 cells per well in a 96 well plate. On day 2 compounds were added at the desired final concentration in fresh media to the respective wells. On day 3 sodium arsenite was added at a final concentration of 500 μM. Incubated at 37° C. for 60 mins. On day 9 wells were washed with PBS and fixed cells using 4% para formaldehyde (in PBS, prepared freshly, methanol free) for 15 mins at room temperature. Washed with PBS, blocked and permeabilized cells with 1% BSA+1% saponin (prepared in PBS) for 1 hour. For Immunostaining primary antibodies were made in 1% BSA (in PBS) and incubated overnight at 4° C. Rabbit polyclonal TDP-43 C-terminal antibody (Proteintech 12892-1-AP)-1:350; mouse monoclonal HuR antibody (Santa Cruz sc-5261)-1:500. On the next day, added the following secondary antibodies Alexa 594 anti-rabbit (Thermofisher Scientific) and Alexa 488 anti-mouse (Thermofisher Scientific) (1:500) in 1% BSA (in PBS) and kept in dark for 1-2 hours at room temperature. Washed and added DAPI in PBS for nuclear staining. The images were analyzed by the open source image analysis software CellProfiler 2.1.1 (offered by Broad Institute of Harvard and MIT—www.cellprofiler.org). This software contains various modules which can be used to analyze images in different ways.
The lower the number, the fewer the TDP-43 aggregates compared to vehicle (DMSO) alone, which is set at 100.

[2] = system: Mutant TDP-43 fibroblast; test: Nucleocytoplasmic assay (NCA) in patient fibroblast, mutant TDP-43 fibroblast; details: compound at 1 μM; DMSO-treated cell set as 100
Description: (§1) Skin-derived fibroblasts cells from Amnyotrophic Lateral Sclerosis (ALS) and Frontotemporal Degeneration (FTD) patients or affected individual acquired from the National Institute of Neurological Disorders and Stroke (NINDS #ND32947, ND41006, ND42717) were grown in HyClone DMEM High Glucose (GE Healthcare Life Sciences) supplemented with 15% FBS and 1% NEAA (Non-Essential Amino Acids), at 37° C. in a humidified atmosphere of 5% CO2. On day 1600 cells per well were seeded in a 96 well glass bottom plate or 1200 cells per well in a 24 well glass bottom plate. Incubated for 4 days, at 37° C. in a humidified atmosphere of 5% CO2, allowed cells to grow for 4 days. On day added compounds including vehicle control at the desired final concentration in fresh media to the respective wells, allowed cells to grow for an additional 4 days. On day 9 washed wells with PBS and fixed cells using 4% para formaldehyde (in PBS, prepared freshly, methanol free) for 15 mins at room temperature. Washed with PBS, blocked and permeabilized cells with 1% BSA+1% saponin (prepared in PBS) for 1 hour. For immunostaining the following primary antibodies were added in 1% BSA (in PBS) and incubated overnight at 4° C. Rabbit polyclonal TDP-43 C-terminal antibody (Proteintech 12892-1-AP)-1:350; mouse monoclonal HuR antibody (Santa Cruz sc-5261)-1:500. On the next day, added the following secondary antibodies Alexa 594 anti-rabbit (Thermofisher Scientific) and Alexa 488 anti-mouse (Thermofisher Scientific) (1:500) in 1% BSA (in PBS) and kept it in dark for 1-2 hours at room temperature. Wash and add DAPI in PBS for nuclear staining.
(§2) The immuno-stained cells were imaged with Nikon Ti inverted fluorescence microscope having CSU-22 spinning disk confocal and EMCCD camera. Plan Apo 20×/0.75 objective and NIS-Elements AR software were used for image acquisition. At least 15 images per well were taken. The exposure times for TDP-43 and HuR remained constant across one experiment. Each image acquired (in .nd format) was exported into three individual channel images (for DAPI, TDP-43, HuR) in .tiff format. The images were analyzed by the open source image analysis software Cell Profiller to calculate the signal intensities of TDP-43 present in the nucleus and cytoplasm in each cell. The DAPI image was used to count the total number of cells. The TDP-43 and HuR images are used to count the number of cells containing TDP-43 and/or HuR nuclear staining.
(§3) The nucleus/cytoplasm ratio of intensities of TDP-43 in each compound-treated (at 1 μM) cells comparing to DMSO-treated cell (which is set as 100) were shown.

[3] = system: Mutant VCP fibroblast; test: Nucleocytoplasmic assay (NCA) in patient fibroblast, mutant VCP fibroblast; details: compound at 1 μM; DMSO-treated cell set as 100
Description: as §1, §2, §3

[4] = system: Fibroblast from FTD affected individual; test: Nucleocytoplasmic assay (NCA) in patient fibroblast, fibroblast from FTD affected individual; details: compound at 1 μM; DMSO-treated cell set as 100
Description: as §1, §2, §3

SMILES | activity at 1 µM [1] | Normalized average number of TDP-43 positive HuR aggregates per cell at 1.5 μM [1] | nucleus/cytoplasm ratio of intensities of TDP-43, Mutant TDP-43 fibroblast [2] | nucleus/cytoplasm ratio of intensities of TDP-43, Mutant VCP fibroblast [3] | nucleus/cytoplasm ratio of intensities of TDP-43, Fibroblast from FTD affected individual [4]
COc1cc2c(cc1OCc1ccccc1)CCNC2/C=C/c1cnc2ncccn12 (centres unmarked) [AA, (E)-6-(benzyloxy)-1-(2-(imidazo[1,2-a]pyrimidin-3-yl)vinyl)-7-methoxy-1,2,3,4-tetrahydroisoquinoline] | 85% |  |  |  | 
COc1cc2c(cc1OCc1ccccc1)CCNC2/C=C/c1cnc2ncc(F)cn12 (centres unmarked) [AC, (E)-6-(benzyloxy)-1-(2-(6-fluoroimidazo[1,2-a]pyrimidin-3-yl)vinyl)-7-methoxy-1,2,3,4-tetrahydroisoquinoline] | 85.8% |  |  |  | 
COc1cc2c(cc1OCc1ccccc1)CCNC2/C=C/c1cnc2ncc(C(F)(F)F)cn12 (centres unmarked) [AD, (E)-6-(benzyloxy)-7-methoxy-1-(2-(6-(trifluoromethyl)imidazo[1,2-a]pyrimidin-3-yl)vinyl)-1,2,3,4-tetrahydroisoquinoline] | 83% | 71.00 |  |  | 
COc1cnc2ncc(/C=C/C3NCCc4cc(OCc5ccccc5)c(OC)cc43)n2c1 (centres unmarked) [AE, (E)-6-(benzyloxy)-7-methoxy-1-(2-(6-methoxyimidazo[1,2-a]pyrimidin-3-yl)vinyl)-1,2,3,4-tetrahydroisoquinoline] |  | 73.75 |  |  | 
COc1cc2c(cc1OCc1ccccc1)CCNC2/C=C/c1cnc2ncc(C)cn12 (centres unmarked) [AF, (E)-6-(benzyloxy)-7-methoxy-1-(2-(6-methylimidazo[1,2-a]pyrimidin-3-yl)vinyl)-1,2,3,4-tetrahydroisoquinoline] |  | 65.5 |  |  | 
CCOC(=O)c1cnc2ncc(/C=C/C3NCCc4cc(OCc5ccccc5)c(OC)cc43)n2c1 (centres unmarked) [AG, Ethyl (E)-3-(2-(6-(benzyloxy)-7-methoxy-1,2,3,4-tetrahydroisoquinolin-1-yl)vinyl)imidazo[1,2-a]pyrimidine-6-carboxylate] | 87% |  |  |  | 
COc1cc2c(cc1OCc1ccccc1)CCNC2/C=C/c1cnc2ncc(C(=O)O)cn12.Cl (centres unmarked) [AH, (E)-3-(2-(6-(benzyloxy)-7-methoxy-1,2,3,4-tetrahydroisoquinolin-1-yl)vinyl)imidazo[1,2-a]pyrimidine-6-carboxylic acid] |  | 71.4 |  |  | 
COc1cc(C)c(/C=C/C2NCCc3cc(OCc4ccccc4)c(OC)cc32)cc1OC (centres unmarked) [Example 1, 6-(benzyloxy)-1-[(E)-2-(4,5-dimethoxy-2-methylphenyl)ethenyl]-7-methoxy-1,2,3,4-tetrahydroisoquinoline] | 67% |  | 147 | 153 | 148
COc1cc2c(cc1OCc1ccccc1)CCNC2/C=C/c1cc2c(cc1C)OCCO2 (centres unmarked) [Example 4, 6-(benzyloxy)-7-methoxy-1-[(E)-2-(7-methyl-2,3-dihydro-1,4-benzodioxin-6-yl)ethenyl]-1,2,3,4-tetrahydroisoquinoline] | 70.9% |  | 130 |  | 
COc1cc2c(cc1OCc1ccccc1)CCNC2/C=C/c1cc2c(cc1C)OCO2 (centres unmarked) [Example 5, 6-(benzyloxy)-7-methoxy-1-[(E)-2-(6-methyl-2H-1,3-benzodioxol-5-yl)ethenyl]-1,2,3,4-tetrahydroisoquinoline] | 83.3% |  | 137 | 179 | 139
COc1cnc2c(c1)c(/C=C/C1NCCc3cc(OCc4ccccc4)c(OC)cc31)cn2C (centres unmarked) [Example 7, 6-(benzyloxy)-7-methoxy-1-[(E)-2-(5-methoxy-1-methyl-1H-pyrrolo[2,3-b]pyridin-3-yl)ethenyl]-1,2,3,4-tetrahydroisoquinoline] | 40% |  | 143 | 191 | 175
COc1cc2c(cc1OCc1ccccc1)CCNC2/C=C/c1ccc(-c2cncnc2)cc1Cl (centres unmarked) [Example 9, 6-(benzyloxy)-1-{(E)-2-[2-chloro-4-(pyrimidin-5-yl)phenyl]ethenyl}-7-methoxy-1,2,3,4-tetrahydroisoquinoline] |  |  |  | 200 | 
COc1cc2c(cc1OCc1ccccc1)CCNC2/C=C/c1cn(C)c2nccc(OC)c12 (centres unmarked) [Example 26, 6-(benzyloxy)-7-methoxy-1-[(E)-2-(4-methoxy-1-methyl-1H-pyrrolo[2,3-b]pyridin-3-yl)ethenyl]-1,2,3,4-tetrahydroisoquinoline] | 59% |  |  | 256 | 146
